Patent publication US6585987B1, “Complexes of hyaluronic acid/carnitines and pharmaceutical and cosmetic compositions” (Continental Projects Limited, priority 1998, dated 2003)

Key:
[1] = tested on: trophic ulcers of lower limbs; assay: Clinical trial in trophic ulcers of lower limbs, topical treatment; type: in vivo, human; settings: for number of patients with VERY GOOD result: 30 patients; for overall results compared with the combination (in words): same treatment time
Experimental: The used protocol is the following one:
1) Topical administrations of a combination of hyaluronic acid and carnitine (1:1 by weight), or of carnitine alone or of hyaluronic acid alone, previous humidification of the lesion with saline for a time of 10 minutes. In the first treatments, it is possible to use hyaluronic acid at a higher concentration than carnitine, to promote ulcer cleansing. In the following treatments, such concentrations of the two molecules have been used as to better make use of the role of carnitine in normalizing tissue trophism. Treatment usually started during hospitalization and was subsequently continued at the nalgesic therapy clinic.
Patients enrolled in this trial came from Medicine and Surgery Departments, where they unsuccessfully received various medical treatments (mesoglycan, Connectivine, mucopolysaccharides).
18 females and 12 males were treated, of age from 62 to 80 years, with trophic ulcers of various size and at different sites, anyhow on limbs or feet.
Results were scored as follows: VERY GOOD, when the ulcer healed completely; GOOD, when an at least 50% reduction of the lesion was attained; NULL, when no significant changes of the lesion occurred after 30 day-treatment.

cartilage explants [2] = assay: PG and HA synthesis in cartilage explants (pulse studies, 3H-glucosamine); type: cell-based, human
Experimental: (§1) Thirty-five subjects were included in the study. Exclusion criteria were septicaemia, connective tissue disordes, rheumatoid arthritis, crystal deposition diseases, known hereditary or congenital defects, immobilization for several weeks as well as treatment with corticosteroids and cytotoxic drugs.
(§2) Tissue specimens obtained from each donor were cut into pieces of 3-6 mg in Dulbecco's modified Eagle's medium (DMEM) supplemented with penicillin (5.000 i.u. ml^−1) The tissue was washed 3 times with this culture medium. Cartilage pieces were taken at random, weighed and distributed into the different wells of multiwell culture plates (typically between 30 and 60 mg tissue/well). Extra pieces were not cultured but stored at −20° C. in order to assess the initial proteoglycans (PG) and HA contents of the cartilage. Culture medium supplemented with 20% (v/v) foetal calf serum (culture medium A) was then added to each well and the culture plates were placed in a 90%: 10% (v/v) air: CO2 humidified incubator for 48 h at 37° C.
(§3) For each experiment the cartilage from one individual was used and tissue cultures were conducted in triplicate: that is, for the control culture as well as for each HA, Acetyl-carnitine (ALC) or HA+ALC, 3 cartilage explants were cultured separately. Reported values are the mean of the triplicate cultures.
After 2 day of culture, the culture medium was aspirated and the explants were washed 3 times with 1 ml of DMEM. Explants were resuspended in 5% FCS culture medium (1 ml 50 mg^−1 tissue) supplemented with ^3H-glucosamine (50 μCi ml^−1) (culture medium B). To each well, a solution of HA, Acetyl-carnitine (ALC) or HA+ALC, was added ([…] in culture medium) to achieve the final concentration of 100 μg of HA and 100 μg of ALC. Control culture received medium alone. Culture wells were then incubated for 12 h. […]
(§4) The Econo-Pak Q column (5 ml) was pre-equilibrated in buffer A at a flow rate of 2 ml min^−1. […] Fractions of 2 ml were collected and assayed for radioactivity. […]

ornithinedecarboxylase = assay: Increase of ornithinedecarboxylase activity induced by theleocidin in skin; type: in vivo, mice; settings: epidermis five hours after
Experimental: These skin alterations increase the ornithinedecarboxylase enzyme, and this increase is related to the severity of the induced cutaneous damage.
In these experiences, theleocidin is injected on mice back shaved skin at a dosage of 5 mcg/mouse dissolved in 0.2 cc of solution.
HA and AC either administered alone, or together or in the form of a complex according to the invention, are spread five minute's before theleocidin on the backs of the animals. Ornithinedecarboxylase is dosed on the homogenised epidermis of the animals five hours after the theleocidin injection, according to the method by O'Brien and Nakadate (O'Brien T. G., Cancer Res., 35, 1662, 1975—Nakadate T. Cancer Res., 42, 2841, 1982). Protein concentration of an epidermis extract is evaluated following the method described by Lowry (Lowry O. H., J. Biol. Chem., 193, 265, […]).

cartilage explants [3] = assay: Net loss of labelled PG and HA from cartilage explants (chase studies); type: cell-based, human
Experimental: as §1, §2, §3
After one day of culture in medium A, the cartilage pieces were aspirated free of medium, washed 3 times with 1 ml of DMEM, resuspended in culture medium B (1 ml 50 mg^−1 tissue) and cultured for 12 h. After pulse labelling, the cartilage pieces were washed with DMEM and resuspended in culture medium A. Medium alone or the appropriate molecules (HA, ALC or HA+ALC) dissolved in medium were added to each well (10 μl ml^−1) as stated above and a non-radioactive chase period was conducted for 24 h. […]
as §4

[4] = tested on: barrier function of corneal epithelium; assay: Clinical trial in dry eye syndrome: barrier function of corneal epithelium (fluorescein test, fluorophotometry); type: in vivo, human; settings: 27 dry eye patients, collyrium for 4 weeks; improvement after 2 weeks in lower cornea areas, 4 weeks in central ones
From the text: Dryness of the conjunctiva, isolated or in association with other ocular or extra-ocular disease, is recognizedly capable of inducing local damage on corneal epithelium which can, inter alia, lose its barrier function. […] According to the protocol, each patient received for 4 weeks a medication (hyaluronic acid) in the form of collyrium in one eye and a different treatment (hyaluronic acid/carnitine) in the other eye, so that each patient also acted as the control. Subjective evaluation and clinical examinations, associated with a fluorescein test, were carried out 2 weeks after the beginning of the treatment as well as at its end (4 weeks).

[5] = tested on: Dithranol induced inflammation; assay: Antiinflammatory activity on dithranol induced cutaneous inflammation; type: in vivo, Guinea pigs; settings: 48 hours
From the text: A specific cutaneous inflammatory reaction, caused by different phlogogenic factors both of exogenous and endogenous origin, including the formation of free radicals, lipoperoxides, prostaglandins and cytokines, is that induced by intradermal injection of dithranol, as described by Mustakallio (Mustakallio K., DERMATOVENER, 54, 125, 1979).
Dithranol is intradermally injected at the dose of 20 mcg on the back of shaved Guinea pigs.
On the opposite side of the back, before the injection of the same amount of dithranol, HA alone or acetyl-L-carnitine (AC) alone, or HA and AC together or the HA and AC complex, are spread.
A mixture of lanolin and ethylene glycol monostearate was used to spread these compounds.

[6] = 100 μg of HA and/or 100 μg of ALC, 12 h pulse

Compound	number of patients with VERY GOOD result ([1]; 30 day-treatment)	overall results compared with the combination (in words) [1]	HA synthesis d.p.m. [^3H] HA × 10^3/h/mg OH/proline (cartilage explants [2]; [6])	PG synthesis d.p.m. [^3H] PG × 10^3/h/mg OH/proline (cartilage explants [2]; [6])	PG and HA synthesis (in words) (cartilage explants [2]; text summary of Table 4)	ornithinedecarboxylase activity (ornithinedecarboxylase; 10 mg spread five minutes before theleocidin 5 mcg/mouse)	ornithinedecarboxylase activity (ornithinedecarboxylase; 50 mg spread five minutes before theleocidin 5 mcg/mouse)	net loss of labelled PGs and HA (in words) (cartilage explants [3]; 24 h chase, Table 5)	% of radiolabelled molecules recovered in the media, [^3H] HA Loss/24 h (cartilage explants [3]; 24 h non-radioactive chase) [%]	% of radiolabelled molecules recovered in the media, [^3H] PG Loss/24 h (cartilage explants [3]; 24 h non-radioactive chase) [%]	symptoms and barrier function of corneal epithelium (in words) [4]	% inhibition of phlogistic area compared with controls ([5]; 10 mg spread on skin before dithranol 20 mcg intradermal) [%]	% inhibition of phlogistic area compared with controls ([5]; 50 mg spread on skin before dithranol 20 mcg intradermal) [%]	inhibition of the inflammation area induced by dithranol ([5]; dose not stated)	patients with GOOD result (at least 50% reduction of the lesion) ([1]; 30 day-treatment) [%]
C[N+](C)(C)C[C@H](O)CC(=O)[O-] [L-Carnitine, L-carnitine]	in no patients	remarkably poorer	–	–	–	–	–	–	–	–	–	–	–	–	–
hyaluronic acid [HA]	in no patients	remarkably poorer	4.5 ± 0.93 d.p.m. [^3H] HA × 10^3/h/mg OH/proline	39.2 ± 9.2 d.p.m. [^3H] PG × 10^3/h/mg OH/proline	slight increase	21 ± 2.8 nmol of CO2/60 min./mg protein	31 ± 4.1 nmol of CO2/60 min./mg protein	reduced only the net loss of labelled HA	28.0 ± 6.09	20.1 ± 7.5	did not provide significant advantages	39 ± 1.6	38 ± 2.9	about 30%	16
